Key:
[1] = aqueous; cited from earlier work
[2] = General toxicity study of bile salt (STC) by IN delivery: clinical pathology and organ histopathology (Example 2); conditions: rat, in vivo, NOAEL for bile salt (STC) at an IN delivery, relative dose, rats; 0.75 mg / 0.298 kg
Description: Each rat was treated with two (2) IN administrations of the respective formulations in Groups A1-A5.

[3] = aqueous epinephrine, same dose by IM route; cited from earlier work

SMILES	CMC [1] [mM]	other results
C[C@H](CCC(=O)[O-])[C@H]1CC[C@H]2[C@@H]3[C@H](O)C[C@@H]4C[C@H](O)CC[C@]4(C)[C@H]3C[C@H](O)[C@]12C.[Na+] [SC, sodium cholate]	~4	–
C[C@H](CCC(=O)[O-])[C@H]1CC[C@H]2[C@@H]3CC[C@@H]4C[C@H](O)CC[C@]4(C)[C@H]3CC[C@]12C.[Na+] [SLC, sodium lithocholate]	~1	–
C[C@H](CCC(=O)NCCS(=O)(=O)[O-])[C@H]1CC[C@H]2[C@@H]3[C@H](O)C[C@@H]4C[C@H](O)CC[C@]4(C)[C@H]3C[C@H](O)[C@]12C.[Na+] [STC, sodium taurocholate]	–	NOAEL [2]: ≥ 2.5 mg/kg
CNC[C@H](O)c1ccc(O)c(O)c1 [epinephrine]	–	bioavailability (BA) based on AUC of plasma concentration, IN relative to IM [3]: approximately 5%
